Assay results: ChEMBL document CHEMBL5046318, “Development of 6-Methanesulfonyl-8-nitrobenzothiazinone Based Antitubercular Agents” (ACS Med Chem Lett, 2022)
pIC50: −log10 of the molar value. Values after ≈ are worked out from the molar mass of the structure shown.

Legend:
[1] = Metabolic stability in human liver microsomes assessed as half life at 1 uM preincubated for 10 mins followed by NADPH addition and further incubated upto 60 mins by LC-MS/MS analysis; type: ADME, Microsome; details: time 70 min
[2] = Metabolic stability in mouse liver microsomes assessed as intrinsic clearance at 1 uM preincubated for 10 mins followed by NADPH addition and further incubated upto 60 mins by LC-MS/MS analysis; type: ADME, Microsome; details: time 70 min, read-out: CLH
[3] = Metabolic stability in human liver microsomes assessed as intrinsic clearance at 1 uM preincubated for 10 mins followed by NADPH addition and further incubated upto 60 mins by LC-MS/MS analysis; type: ADME, Microsome; details: time 70 min, read-out: CLH
[4] = Metabolic stability in mouse liver microsomes assessed as half life at 1 uM preincubated for 10 mins followed by NADPH addition and further incubated upto 60 mins by LC-MS/MS analysis; type: ADME, Microsome; details: time 70 min
[5] = Plasma protein binding in human; type: ADME, cell-free; details: read-out: PPB (converted)
[6] = target: T1, Decaprenylphosphoryl-beta-D-ribose oxidase (Mycobacterium tuberculosis (strain ATCC 25618 / H37Rv), UniProt P9WJF1); experiment: Inhibition of Mycobacterium tuberculosis H37Rv recombinant DprE1 expressed in Escherichia coli assessed as formation of resorufin using FPR as substrate by Amplex Red hydrogen/peroxidase coupled assay
T1 sequence (P9WJF1 whole entry): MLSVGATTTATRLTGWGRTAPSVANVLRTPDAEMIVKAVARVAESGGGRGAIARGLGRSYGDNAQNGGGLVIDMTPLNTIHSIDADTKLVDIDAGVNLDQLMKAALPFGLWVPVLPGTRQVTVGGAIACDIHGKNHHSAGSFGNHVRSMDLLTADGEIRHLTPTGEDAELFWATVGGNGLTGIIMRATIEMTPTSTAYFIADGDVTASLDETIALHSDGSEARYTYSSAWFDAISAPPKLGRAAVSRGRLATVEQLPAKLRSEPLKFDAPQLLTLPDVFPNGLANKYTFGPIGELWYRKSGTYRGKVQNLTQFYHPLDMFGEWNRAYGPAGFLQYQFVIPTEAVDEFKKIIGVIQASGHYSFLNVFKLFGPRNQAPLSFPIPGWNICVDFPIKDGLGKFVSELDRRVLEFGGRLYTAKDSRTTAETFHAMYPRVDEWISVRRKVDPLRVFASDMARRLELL

[7] = tested on: Mycobacterium tuberculosis; experiment: Antitubercular activity against Mycobacterium tuberculosis H37Rv assessed as bacterial growth inhibition incubated for […] by MABA assay; type: functional
[8] = Thermodynamic solubility of compound at pH 7.4 aqueous phosphate buffer; type: physicochemical; details: read-out: Therm_solubility

SMILES | pIC50 [6] | MIC [7] [µM] | other results
CS(=O)(=O)c1cc([N+](=O)[O-])c2sc(N3CCN(CC4CCCCC4)CC3)nc(=O)c2c1 | 7.30 | 0.01 (≈ 0.00467 µg/mL) | half-life at 1 µM [1]: 28.8 min; CLint scaled at 1 µM [2]: 129 mL/min/kg; CLint scaled at 1 µM [3]: 60.5 mL/min/kg; half-life at 1 µM [4]: 42.1 min; fraction unbound [5]: 0.025
CS(=O)(=O)c1cc([N+](=O)[O-])c2sc(N3CCN(CC4CCCCC4)C4(CC4)C3)nc(=O)c2c1 | 5.41 | 0.04 (≈ 0.0197 µg/mL) | half-life at 1 µM [1]: 22.6 min; CLint scaled at 1 µM [2]: 163 mL/min/kg; solubility thermodynamic [8]: 0.7 µg/mL (≈ 1.42 µM); CLint scaled at 1 µM [3]: 77 mL/min/kg; half-life at 1 µM [4]: 33.5 min; fraction unbound [5]: 0.016
CS(=O)(=O)c1cc([N+](=O)[O-])c2sc(N3CCN(S(=O)(=O)C4CC4)CC3)nc(=O)c2c1 | 5.15 | 0.3 (≈ 0.142 µg/mL) | 
CS(=O)(=O)c1cc([N+](=O)[O-])c2sc(N3CCCN(S(=O)(=O)c4ccccc4)CC3)nc(=O)c2c1 |  | > 3.5 | 
CC(C)CN1CCCN(c2nc(=O)c3cc(S(C)(=O)=O)cc([N+](=O)[O-])c3s2)CC1 | 5.89 | 0.07 (≈ 0.0308 µg/mL) | 
CS(=O)(=O)c1cc([N+](=O)[O-])c2sc(N3CCN(Cc4cccs4)CC3)nc(=O)c2c1 |  | 0.25 (≈ 0.117 µg/mL) | 
CS(=O)(=O)c1cc([N+](=O)[O-])c2sc(N3CCN(C(=O)c4ccccc4)CC3)nc(=O)c2c1 |  | > 64 | 
CS(=O)(=O)c1cc([N+](=O)[O-])c2sc(N3CCN(CC4CCC(F)(F)CC4)CC3)nc(=O)c2c1 | 5.96 | 0.03 (≈ 0.0151 µg/mL) | half-life at 1 µM [1]: 38.6 min; CLint scaled at 1 µM [2]: 92.4 mL/min/kg; solubility thermodynamic [8]: 0.81 µg/mL (≈ 1.61 µM); CLint scaled at 1 µM [3]: 45.1 mL/min/kg; half-life at 1 µM [4]: 59 min; fraction unbound [5]: 0.021
CS(=O)(=O)c1cc([N+](=O)[O-])c2sc(N3CCN(CC4CCOCC4)CC3)nc(=O)c2c1 | 4.99 | 0.51 (≈ 0.239 µg/mL) | 
CS(=O)(=O)c1cc([N+](=O)[O-])c2sc(N3CCN(CC4CCC(C(F)(F)F)CC4)CC3)nc(=O)c2c1 (configuration not stated) |  | 1.87 (≈ 1 µg/mL) | 
CS(=O)(=O)c1cc([N+](=O)[O-])c2sc(N3CCCN(S(=O)(=O)C4CC4)CC3)nc(=O)c2c1 | 4.78 | 0.94 (≈ 0.459 µg/mL) | 
CC(C)CCN1CCCN(c2nc(=O)c3cc(S(C)(=O)=O)cc([N+](=O)[O-])c3s2)CC1 |  | 0.49 (≈ 0.223 µg/mL) | 
CS(=O)(=O)c1cc([N+](=O)[O-])c2sc(N3CCN(CC4CCSCC4)CC3)nc(=O)c2c1 |  | 0.1 (≈ 0.0485 µg/mL) | 
CS(=O)(=O)c1cc([N+](=O)[O-])c2sc(N3CCCN(CC4CCCCC4)CC3)nc(=O)c2c1 | 5.96 | 0.07 (≈ 0.0336 µg/mL) | 
CS(=O)(=O)c1cc([N+](=O)[O-])c2sc(N3CCCN(CC4CCCC4)CC3)nc(=O)c2c1 | 5.36 | 0.15 (≈ 0.07 µg/mL) | 
CS(=O)(=O)c1cc([N+](=O)[O-])c2sc(N3CCN(CC4CCCCC4)C(=O)C3)nc(=O)c2c1 |  | 0.07 (≈ 0.0336 µg/mL) | 
CCS(=O)(=O)N1CCCN(c2nc(=O)c3cc(S(C)(=O)=O)cc([N+](=O)[O-])c3s2)CC1 |  | > 2 | 
CS(=O)(=O)c1cc([N+](=O)[O-])c2sc(N3CCN(C(=O)C4CCCCC4)CC3)nc(=O)c2c1 |  | 0.96 (≈ 0.461 µg/mL) | 
CCCCS(=O)(=O)N1CCN(c2nc(=O)c3cc(S(C)(=O)=O)cc([N+](=O)[O-])c3s2)CC1 | 5.85 | 0.09 (≈ 0.0442 µg/mL) | 
CS(=O)(=O)c1cc([N+](=O)[O-])c2sc(N3CCCN(S(=O)(=O)c4cccs4)CC3)nc(=O)c2c1 |  | > 3.5 | 
CS(=O)(=O)c1cc([N+](=O)[O-])c2sc(N3CCN(Cc4ccccc4)CC3)nc(=O)c2c1 |  | 0.21 (≈ 0.0967 µg/mL) | 
CS(=O)(=O)c1cc([N+](=O)[O-])c2sc(N3CCN(S(=O)(=O)c4cccs4)CC3)nc(=O)c2c1 |  | 108 (≈ 55.8 µg/mL) | 
CS(=O)(=O)c1cc([N+](=O)[O-])c2sc(N3CCN(S(=O)(=O)c4ccccc4)CC3)nc(=O)c2c1 |  | 0.33 (≈ 0.168 µg/mL) | 
CC(C)CN1CCN(c2nc(=O)c3cc(S(C)(=O)=O)cc([N+](=O)[O-])c3s2)CC12CC2 |  | 0.17 (≈ 0.0769 µg/mL) | 
CCS(=O)(=O)N1CCN(c2nc(=O)c3cc(S(C)(=O)=O)cc([N+](=O)[O-])c3s2)CC1 | 5.17 | 0.26 (≈ 0.12 µg/mL) | 
CCCCS(=O)(=O)N1CCCN(c2nc(=O)c3cc(S(C)(=O)=O)cc([N+](=O)[O-])c3s2)CC1 |  | > 2 | 
CS(=O)(=O)c1cc([N+](=O)[O-])c2sc(N3CCCN(Cc4ccccc4)CC3)nc(=O)c2c1 |  | 0.48 (≈ 0.228 µg/mL) | 
CCCCCN1CCCN(c2nc(=O)c3cc(S(C)(=O)=O)cc([N+](=O)[O-])c3s2)CC1 |  | 0.49 (≈ 0.223 µg/mL) | 
O=c1nc(N2CCN(CC3CCCCC3)CC2)sc2c([N+](=O)[O-])cc(C(F)(F)F)cc12 [MACOZINONE] |  |  | half-life at 1 µM [1]: 62.1 min; CLint scaled at 1 µM [2]: 174 mL/min/kg; solubility thermodynamic [8]: < 0.01 µg/mL; CLint scaled at 1 µM [3]: 28.1 mL/min/kg; half-life at 1 µM [4]: 31.5 min; fraction unbound [5]: < 0.001
